Legend:
[1] = S-metoprolol plasma concentrations in heart failure patients on metoprolol CR/XL; type: in vivo, human; conditions: final metoprolol CR/XL dose, about 2 to 4 hours after dosing
Experimental: After obtaining informed consent, a 5-mL blood sample for isolation of genomic DNA was collected. Baseline evaluations included a two-dimensional (2D) quantitative echocardiogram for determination of measures such as ejection fraction (EF}, left ventricular end-diastolic diameter (LVEDD), LV end-systolic diameter (LVESD), and completion of a 6-minute walk test. After completion of baseline studies, patients began metoprolol CR/XL. The starting dose of metoprolol CR/XL was 12.5 mg/day for patients in NYHA class III and 25 mg/day for patients in NYHA class II. The dose was doubled on a biweekly basis to 200 mg/day or maximum tolerated dose. Thus, the time for the up-titration period was 8-10 weeks depending on the starting dose of metoprolol CR/XL. Patients underwent a follow-up echocardiogram three months after the attainment of completion of up-titration or attainment of the maximum metoprolol CR/XL dose. Thus, at the time of the follow-up echocardiogram, patients had been receiving metoprolol CR/XL for approximately 5-5.5 months. In a subset of 42 patients who consented to additional blood draws, a pharmacokinetic blood sample was obtained approximately 2 to 4 hours following dosing after two weeks on each metoprolol CR/XL dose for determination of S-metoprolol (active isomer) concentrations.

[2] = system: hypertensive men and women; assay: Hypertension study: 24-hour ambulatory blood pressure response to metoprolol by ADRA2C Ins/Del genotype
Experimental: In the hypertension study, 40 hypertensive men and women aged 35 to 65 years were studied. Hypertension was defined as untreated DBP between 95 mm Hg and 115 mm Hg (2 clinic visits, ≧5 minutes sitting). A certain range for systolic blood pressure (SBP) was not required for study entry. […] Medications for other indications were only allowed if it could not conceivably affect BP.
Patients took 50 mg metoprolol every 12 hours and BP was measured every week at the same time of the day to minimize the impact of diurnal BP variation. To achieve the goal DBP <90 mm Hg, the dose could be increased weekly to 100 mg and the maximum of 200 mg every 12 hours. Doses were not increased if the patient had intolerable side effects.
After the treatment phase, 24-hour ABP monitoring was repeated and blood samples for a pharmacokinetic analysis were taken.
Thus, univariate linear regression was used to model the DBP responses (24-hour, daytime) with the Ins/Del variable. […] This model would also include other, in the univariate model significant variables (P<0.1 for entry).

[3] = system: patients with heart failure; conditions: Metra et al. 2000; cited from earlier work
heart failure patients [4] = conditions: concomitant drug in patients on metoprolol CR/XL; linear regression on final EF
Description: Patients were recruited for this prospective study from the University of Florida and University of North Carolina Heart Failure Clinics. All clinicians involved in clinical decision making were blinded to the genotypic data and all investigators determining the genotypes were blinded to the patient's clinical course. The study was approved by the Institutional Review Board at each institution, and each patient gave written informed consent for participation in the study. The procedures followed were in accordance with institutional guidelines. The study population included patients aged ≧18 years with symptoms of heart failure in NYHA functional class II-III, and with an EF≦40%. […] Patients were not eligible for enrollment if they were receiving β-blocker therapy.
After obtaining informed consent, a 5-mL blood sample for isolation of genomic DNA was collected. […] Left ventricular dimensions at the mid-cavity or chordal level were measured from digitized end diastolic and end systolic parasternal long axis images of the left ventricle.
Patients were divided by genotype and compared for continuous parameters (e.g., LVEF, LVEDD) at baseline as well as changes in these parameters. Comparisons were made by unpaired t-test, ANOVA, Kruskal Wallis test, or Wilcoxon rank sum as appropriate. […]

heart failure patients [5] = assay: Heart failure study: ejection fraction and heart rate response by ADRA2C Ins/Del and ADRB1 Arg389Gly genotype; type: in vivo, human; conditions: concomitant drug in patients on metoprolol CR/XL
Experimental: Inclusion criteria were age >18 years, NYHA functional class II-III, EF <40% and angiotensin-converting enzyme (ACE) inhibitor or angiotensin receptor blocker treatment on a stable dose for a minimum of four weeks. Patients receiving β-blocker therapy were not eligible.
At baseline, ejection fraction (EF), LV end-diastolic diameter (LVEDD) and LV endsystolic diameter (LVESD) were determined by a two-dimensional (2D) quantitative echocardiogram. Echocardiograms were analyzed by a single experienced echo-cardiologist. This individual had no knowledge of the clinical course or the genotyping results. […] The starting dose for patients in NYHA class II was 25 mg/day. […] Based on α of 0.05 and 80% power, at least 20 patients per genotype group (Ins/Ins or Del Carrier) were required to detect a difference of 6 EF units. […] Therefore, univariate linear regression models were used to predict end of study EF, LVEDD, or LVESD with the Ins/Del variable. […] The multivariate linear regressions included also variables that were significant in the univariate models. Three different step-type selection methods (backward elimination, forward elimination, and minimum R^2 improvement) were used to determine the best-fitting regression model from the maximum model. Model entry was set at P<0.1 and variables with P<0.05 stayed for the next step. […]

**Q.** Which “S-metoprolol plasma concentrations, median (interquartile range)” value ([1]; Arg389 homozygotes) does the source give for COCCc1ccc(OCC(O)CNC(C)C)cc1.COCCc1ccc(OCC(O)CNC(C)C)cc1.O=C(O)CCC(=O)O (stereo not shown) [metoprolol CR/XL] here?
**A.** 31 ng/mL

**Q.** What about the “S-metoprolol plasma concentrations, median (interquartile range)” value ([1]; Gly 389 carriers) of the same compound?
**A.** 19 ng/mL

**Q.** Which “24-hour SBP change” value ([2]; Del carrier) does the source give for COCCc1ccc(OCC(O)CNC(C)C)cc1 (stereo not shown) [metoprolol] here?
**A.** −8.3±21.6

**Q.** What about the “daytime SBP change” value ([2]; Del carrier) of the same compound?
**A.** −9.4±21.7

**Q.** What about the “nighttime SBP change” value ([2]; Del carrier) of the same compound?
**A.** −4.7±22.2

**Q.** What about the “Nighttime DBP change” value ([2]; Del carriers) of the same compound?
**A.** 3.7±9.7 mm Hg

**Q.** And the “24-hour SBP change” value ([2]; Ins/Ins)?
**A.** −8.8±16.4 mm Hg

**Q.** And the “Nighttime DBP change” value ([2]; Ins/Ins)?
**A.** −8.0±8.8 mm Hg

**Q.** What about the “daytime SBP change” value ([2]; Ins/Ins) of the same compound?
**A.** −9.5±16.6 mm Hg

**Q.** What about the “nighttime SBP change” value ([2]; Ins/Ins) of the same compound?
**A.** −7.0±18.1 mm Hg

**Q.** What about the adverse effects ([2]; all 40 hypertension patients) of the same compound?
**A.** minor

**Q.** And the “95% confidence intervals for the change in LVEF” value [3]?
**A.** −8.2 to +22.6

**Q.** What does the source list for CC(=O)S[C@@H]1CC2=CC(=O)CC[C@]2(C)[C@H]2CC[C@@]3(C)[C@@H](CC[C@@]34CCC(=O)O4)[C@H]12 [Spironolactone, spironolactone]?
**A.** Parameter Estimate for use of the drug, multivariate analysis of change in Ejection Fraction (heart failure patients [4]): 6.19 ejection fraction units; Parameter estimate for use of the drug, multiple regression of treatment ejection fraction (heart failure patients [5]): 4.37

**Q.** With COc1ccccc1OCCNCC(O)COc1cccc2[nH]c3ccccc3c12 (stereo not shown) [carvedilol] as the compound, how does the “95% confidence intervals for the change in LVEF” value [3] read?
**A.** −11.1 to +32.9

**Q.** For NS(=O)(=O)c1cc(C(=O)O)c(NCc2ccco2)cc1Cl [Furosemide, furosemide], which “Parameter Estimate for use of the drug, multivariate analysis of change in Ejection Fraction” value (heart failure patients [4]) is on record?
**A.** 8.22 ejection fraction units

From patent publication US20080269346A1, “B-Blocker Pharmacogenetics in Heart Failure” (University of Florida Research Foundation, Inc., priority 2005, published 2008)
